Measurements taken from ChEMBL document CHEMBL6182898, “Design, synthesis and bioevaluation of novel hydrazide derivatives as enhancers of immunotherapy and DNA-damage response in antitumor therapy” (Eur J Med Chem, 2025).
The source made the active and inactive calls. The rule behind the calls is not given here.

Experiments:
[1] = VRT (0 to infinity) in male Sprague-Dawley rat at 2 mg/kg, iv measured for 0.083 to 12 hrs by LC-MS/MS analysis; type: ADME, organism-based; conditions: in vivo, time 0.083-12 hrs
4T1 [2] = test: Induction of DNA damage in mouse 4T1 cells assessed as decrease in PARP1 level at 2 uM incubated for 24 hrs by Western blot analysis; type: functional, cell-based
[3] = AUMC (0 to t) in male Sprague-Dawley rat at 2 mg/kg, iv measured for 0.083 to 12 hrs by LC-MS/MS analysis; type: ADME, organism-based; conditions: in vivo, time 0.083-12 hrs
Mus musculus = test: Effect on Ac-alpha-tubulin in mouse B16-F10 cells implanted in male C57BL/6J mouse at 50 mg/kg, IG treated for 14 days consecutively by Western blot analysis; type: functional, organism-based; conditions: time 14.0 day
4T1 [4] = test: Induction of DNA damage in mouse 4T1 cells implanted in mouse assessed as increase in gamma-H2AX level at 50 mg/kg/day by immunofluorescence based analysis; type: functional, organism-based
4T1 [5] = test: Synergistic induction of DNA damage in mouse 4T1 cells implanted in mouse assessed as increase in gamma-H2AX level at 25 mg/kg/day in presence of olaparib by IHC analysis; type: functional, organism-based
[6] = AUC (0 to t) in male Sprague-Dawley rat at 2 mg/kg, iv measured for 0.083 to 12 hrs by LC-MS/MS analysis; type: ADME, organism-based; conditions: in vivo, time 0.083-12 hrs
[7] = Half life in male Sprague-Dawley rat at 2 mg/kg, iv measured for 0.083 to 12 hrs by LC-MS/MS analysis; type: ADME, organism-based; conditions: in vivo, time 0.083-12 hrs
[8] = MRT (0 to infinity) in male Sprague-Dawley rat at 20 mg/kg, po measured for 0.083 to 12 hrs by LC-MS/MS analysis; type: ADME, organism-based; conditions: in vivo, time 0.083-12 hrs
[9] = AUMC (0 to infinity) in male Sprague-Dawley rat at 2 mg/kg, iv measured for 0.083 to 12 hrs by LC-MS/MS analysis; type: ADME, organism-based; conditions: in vivo, time 0.083-12 hrs
B16-F10 [10] = test: Induction of antitumor immunity in mouse B16-F10 cells implanted in male C57BL/6J mouse assessed as CD3+CD4+ T cell infiltration at 50 mg/kg, IG treated for 14 days consecutively by flow cytometry (reference value: 7.4 %); type: functional; conditions: time 14 day
[11] = AUMC (0 to t) in male Sprague-Dawley rat at 20 mg/kg, po measured for 0.083 to 12 hrs by LC-MS/MS analysis; type: ADME, organism-based; conditions: in vivo, time 0.083-12 hrs
B16-F10 [12] = test: Induction of antitumor immunity in mouse B16-F10 cells implanted in male C57BL/6J mouse assessed as increase in T cell infiltration at 25 mg/kg, IG treated for 14 days consecutively in presence of NP-19 by immunofluorescence based analysis; type: functional, organism-based; conditions: time 14.0 day
[13] = target: Programmed cell death 1 ligand 1 (Mus musculus, UniProt Q9EP73); test: Induction of PD-L1 degradation in mouse B16-F10 cells incubated for 24 hrs by Western blot analysis; type: cell-based
[14] = target: Programmed cell death 1 ligand 1 (Mus musculus) (UniProt Q9EP73); test: Induction of PD-L1 degradation in mouse B16-F10 cells assessed as increase in CTSB level at 0.313 to 10 uM incubated for 24 hrs by Western blot analysis; type: cell-based; conditions: dose 0.313-10 µM
[15] = Toxicity in male C57BL/6J mouse implanted with mouse B16-F10 cells assessed as body weight change at 25 mg/kg, IG treated for 14 days consecutively in presence of NP-19; type: organism-based; conditions: in vivo, po, 336 h, time 14 day
4T1 [16] = test: Antitumor activity against mouse 4T1 cells implanted in mouse at 50 mg/kg/day relative to control; type: functional; conditions: read-out: TGI
[17] = AUMC (0 to infinity) in male Sprague-Dawley rat at 20 mg/kg, po measured for 0.083 to 12 hrs by LC-MS/MS analysis; type: ADME, organism-based; conditions: in vivo, time 0.083-12 hrs
[18] = target: Programmed cell death 1 ligand 1 (Mus musculus) (UniProt Q9EP73); test: Induction of PD-L1 degradation in mouse B16-F10 cells at 5 uM incubated for 24 hrs in presence of MG-132 by Western blot analysis; type: cell-based
[19] = target: Programmed cell death 1 ligand 1 (Mus musculus) (UniProt Q9EP73); test: Induction of PD-L1 degradation in mouse B16-F10 cells at 2 uM incubated for 24 hrs in presence of CA-074 by Western blot analysis; type: cell-based
[20] = target: T1, Histone deacetylase 3 (Mus musculus) (UniProt O88895); test: In vivo inhibition of HDAC3 in mouse B16-F10 cells implanted in male C57BL/6J mouse assessed as increase in Ac-H3 level at 25 mg/kg, IG treated for 14 days consecutively in presence of NP-19 by immunofluorescence based analysis; type: functional, organism-based; conditions: time 14.0 day
T1 sequence (whole entry): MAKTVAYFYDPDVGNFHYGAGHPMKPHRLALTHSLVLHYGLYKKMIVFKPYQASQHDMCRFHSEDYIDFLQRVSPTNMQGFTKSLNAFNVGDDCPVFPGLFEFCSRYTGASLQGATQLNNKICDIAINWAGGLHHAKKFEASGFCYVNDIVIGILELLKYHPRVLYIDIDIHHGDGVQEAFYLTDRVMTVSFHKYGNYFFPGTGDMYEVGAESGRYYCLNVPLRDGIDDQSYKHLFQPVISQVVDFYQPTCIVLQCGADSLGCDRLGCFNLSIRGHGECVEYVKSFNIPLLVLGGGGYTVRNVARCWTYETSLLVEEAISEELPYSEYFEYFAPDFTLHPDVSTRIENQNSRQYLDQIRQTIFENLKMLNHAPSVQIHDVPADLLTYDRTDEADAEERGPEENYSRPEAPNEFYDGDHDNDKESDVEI

[21] = AUC (0 to infinity) in male Sprague-Dawley rat at 20 mg/kg, po measured for 0.083 to 12 hrs by LC-MS/MS analysis; type: ADME, organism-based; conditions: in vivo, time 0.083-12 hrs
4T1 [22] = test: Induction of DNA damage in mouse 4T1 cells implanted in mouse assessed as increase in gamma-H2AX level at 50 mg/kg/day by Western blot analysis; type: functional, organism-based
[23] = VRT (0 to t) in male Sprague-Dawley rat at 2 mg/kg, iv measured for 0.083 to 12 hrs by LC-MS/MS analysis; type: ADME, organism-based; conditions: in vivo, time 0.083-12 hrs
[24] = Tmax in male Sprague-Dawley rat at 2 mg/kg, iv measured for 0.083 to 12 hrs by LC-MS/MS analysis; type: ADME, organism-based; conditions: in vivo, time 0.083-12 hrs

Chain of Programmed cell death 1 ligand 1 (Mus musculus) (Q9EP73 whole entry): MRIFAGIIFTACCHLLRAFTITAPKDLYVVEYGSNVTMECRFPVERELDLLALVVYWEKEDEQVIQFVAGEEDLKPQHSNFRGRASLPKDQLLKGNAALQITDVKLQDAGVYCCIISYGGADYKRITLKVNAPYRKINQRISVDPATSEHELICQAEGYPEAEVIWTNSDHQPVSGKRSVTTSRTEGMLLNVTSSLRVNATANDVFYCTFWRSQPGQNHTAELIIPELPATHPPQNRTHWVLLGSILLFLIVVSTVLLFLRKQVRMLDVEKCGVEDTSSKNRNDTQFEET
Chain of Programmed cell death 1 ligand 1 (Q9EP73 whole entry): as above

CCCNNC(=O)CCCCCCNC(=O)c1cnc(-c2ccc(NC(=O)OC(C)(C)C)cc2)s1
VRT [1]: 0.98 h² | Activity (4T1 [2]): Active | AUMCt [3]: 223.08 hr.hr.ug/L | Activity (Mus musculus): No effect | Activity (4T1 [4]): Active | Activity (4T1 [5]): Active | AUC(0-t) [6]: 657 ng·h/mL | half-life [7]: 2.21 h | MRT inf [8]: 3.13 h | AUMC [9]: 238.68 hr.hr.ug/L | Activity (B16-F10 [10]): 12% | AUMCt [11]: 77.04 hr.hr.ug/L | Activity (B16-F10 [12]): Active | DC50 [13]: 4.17 µM | Activity [14]: Active | Activity [15]: Non-toxic | inhibition in vivo at 50 mg/kg/day (4T1 [16]): 64% | AUMC [17]: 97.74 hr.hr.ug/L | Activity [18]: Active | Activity [19]: inactive | inhibition [20]: Active | AUC(0-inf) [21]: 32.1 ng·h/mL | Activity (4T1 [22]): Active | VRT(t) [23]: 0.55 h² | Tmax [24]: 4.8 min
